For the experiment, the target named is LRRK2 protein (SEQ ID NO:2) (Homo sapiens, UniProt Q5S007). The experiment in a line: Drug Pull-Down experiments. It counts as binding. The procedure:
The pharmacological properties of the LRRK2 modulating agents can be evaluated, for example, in Drug Pull-Down experiments. The above-mentioned heterocyclic compounds can show activity in Drug Pull-Down experiments at concentrations below 20 μM.

Chain of LRRK2 protein (SEQ ID NO:2) (Q5S007 whole entry R50H/L212S): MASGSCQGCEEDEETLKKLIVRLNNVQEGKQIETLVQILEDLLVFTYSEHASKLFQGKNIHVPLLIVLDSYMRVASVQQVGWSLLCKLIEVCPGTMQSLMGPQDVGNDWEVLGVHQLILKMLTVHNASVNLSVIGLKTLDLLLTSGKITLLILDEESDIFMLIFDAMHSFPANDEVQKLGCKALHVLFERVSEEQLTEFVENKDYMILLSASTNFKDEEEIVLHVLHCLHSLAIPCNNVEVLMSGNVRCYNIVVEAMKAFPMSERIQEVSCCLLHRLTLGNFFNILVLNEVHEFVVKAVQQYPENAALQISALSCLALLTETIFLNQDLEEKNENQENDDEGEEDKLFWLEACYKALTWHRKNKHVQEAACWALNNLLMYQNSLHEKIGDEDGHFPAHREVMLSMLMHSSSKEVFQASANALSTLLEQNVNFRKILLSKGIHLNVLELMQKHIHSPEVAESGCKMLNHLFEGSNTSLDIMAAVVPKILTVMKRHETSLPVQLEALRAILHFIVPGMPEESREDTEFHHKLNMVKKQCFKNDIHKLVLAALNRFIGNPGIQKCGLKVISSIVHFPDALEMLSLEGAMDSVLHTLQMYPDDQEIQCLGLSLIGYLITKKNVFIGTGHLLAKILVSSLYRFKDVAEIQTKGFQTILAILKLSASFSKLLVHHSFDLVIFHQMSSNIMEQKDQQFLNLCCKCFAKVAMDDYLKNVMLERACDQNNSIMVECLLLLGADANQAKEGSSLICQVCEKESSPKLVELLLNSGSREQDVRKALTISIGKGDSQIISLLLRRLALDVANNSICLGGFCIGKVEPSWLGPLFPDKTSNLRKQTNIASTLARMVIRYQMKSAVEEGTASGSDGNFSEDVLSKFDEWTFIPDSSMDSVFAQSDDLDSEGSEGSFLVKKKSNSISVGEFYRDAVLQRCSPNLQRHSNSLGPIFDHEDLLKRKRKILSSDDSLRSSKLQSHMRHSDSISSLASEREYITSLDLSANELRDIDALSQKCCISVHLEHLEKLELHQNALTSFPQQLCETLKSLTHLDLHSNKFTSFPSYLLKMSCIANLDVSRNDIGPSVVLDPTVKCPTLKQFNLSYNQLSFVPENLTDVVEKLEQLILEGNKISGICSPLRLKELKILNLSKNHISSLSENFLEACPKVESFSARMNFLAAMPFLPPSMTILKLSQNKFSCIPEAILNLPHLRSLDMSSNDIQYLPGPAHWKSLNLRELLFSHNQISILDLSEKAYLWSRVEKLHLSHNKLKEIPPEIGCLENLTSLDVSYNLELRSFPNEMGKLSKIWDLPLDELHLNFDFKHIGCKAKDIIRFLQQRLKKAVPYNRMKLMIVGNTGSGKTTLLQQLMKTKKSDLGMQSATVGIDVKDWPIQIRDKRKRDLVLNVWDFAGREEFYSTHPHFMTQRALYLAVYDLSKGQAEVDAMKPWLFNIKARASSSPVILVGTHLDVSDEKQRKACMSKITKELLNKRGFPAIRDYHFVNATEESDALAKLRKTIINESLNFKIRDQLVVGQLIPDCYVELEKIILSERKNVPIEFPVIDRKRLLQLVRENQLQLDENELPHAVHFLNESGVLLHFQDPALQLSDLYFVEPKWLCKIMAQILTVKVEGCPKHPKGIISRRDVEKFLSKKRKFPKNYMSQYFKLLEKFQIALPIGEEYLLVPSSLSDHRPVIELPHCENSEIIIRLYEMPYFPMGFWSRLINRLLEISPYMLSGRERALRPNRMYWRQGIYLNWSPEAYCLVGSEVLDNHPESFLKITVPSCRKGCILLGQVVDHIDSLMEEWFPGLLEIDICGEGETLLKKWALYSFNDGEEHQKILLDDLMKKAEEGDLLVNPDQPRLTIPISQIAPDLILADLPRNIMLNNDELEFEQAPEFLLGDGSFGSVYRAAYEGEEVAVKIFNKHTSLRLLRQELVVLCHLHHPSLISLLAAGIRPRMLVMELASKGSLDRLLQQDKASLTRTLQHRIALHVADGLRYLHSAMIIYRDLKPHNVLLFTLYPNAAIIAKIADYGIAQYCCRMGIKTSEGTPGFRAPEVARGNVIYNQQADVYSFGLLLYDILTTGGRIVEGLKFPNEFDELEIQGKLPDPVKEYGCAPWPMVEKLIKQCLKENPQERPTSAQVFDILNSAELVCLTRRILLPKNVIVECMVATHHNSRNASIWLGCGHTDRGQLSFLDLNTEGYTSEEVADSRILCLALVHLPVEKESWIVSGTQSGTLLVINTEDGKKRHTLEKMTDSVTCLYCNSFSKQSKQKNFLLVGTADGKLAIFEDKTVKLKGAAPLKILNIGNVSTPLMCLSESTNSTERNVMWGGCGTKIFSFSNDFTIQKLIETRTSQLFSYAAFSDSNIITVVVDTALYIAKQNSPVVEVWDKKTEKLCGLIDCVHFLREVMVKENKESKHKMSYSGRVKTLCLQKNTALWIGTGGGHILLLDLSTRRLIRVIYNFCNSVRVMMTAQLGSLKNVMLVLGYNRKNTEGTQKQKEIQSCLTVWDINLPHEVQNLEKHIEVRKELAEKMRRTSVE

One may read the IC50 as the concentration that gives 50% inhibition. Low values mean inhibition by little substance, high ones a need for much substance. `Cc1[nH]c(/C=C2\C(=O)Nc3ccccc32)c(C)c1CCC(=O)O` [Compound 12]: the IC50 was around 1 µM.

The values above are taken from patent publication US20100035251A1, “BioMarkers for the Progression of Alzheimer's Disease” (priority 2006, published 2010).
